pEC50: −log10 of the molar value.
Molecular target: T1, human Cystic Fibrosis Transmembrane Conductance Regulator (CFTR) harboring the ΔF508 mutation (Homo sapiens, UniProt P13569, DEL508-508)
T1 construct: expressed in transfected cells; host or cells: H441 carcinoma line (G418 selection)
Assay: H441 cell Emax and EC50: HRP-tagged ΔF508-CFTR cell surface luminescence assay
Type: cell-based
Conditions: H441 cells expressing ΔF508-CFTR-HRP, 27° C., two nights; for pEC50: 15-point dose-response, top 24.5 μM; for Emax: NCI-H441, % of maximum VX809 signal
Outline: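 Cells express ΔF508-CFTR carrying an HRP tag in extracellular loop 4 (CMV promoter); ~10K cells/well treated with a 15-point series from 24.5 µM and incubated two nights at 27° C. Surface CFTR read by luminescence from HRP substrate. EC50 and Emax given relative to maximal VX809 (260 µM stock) signal.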

T1 sequence (P13569 with tags, fused parts or gaps DEL508-508): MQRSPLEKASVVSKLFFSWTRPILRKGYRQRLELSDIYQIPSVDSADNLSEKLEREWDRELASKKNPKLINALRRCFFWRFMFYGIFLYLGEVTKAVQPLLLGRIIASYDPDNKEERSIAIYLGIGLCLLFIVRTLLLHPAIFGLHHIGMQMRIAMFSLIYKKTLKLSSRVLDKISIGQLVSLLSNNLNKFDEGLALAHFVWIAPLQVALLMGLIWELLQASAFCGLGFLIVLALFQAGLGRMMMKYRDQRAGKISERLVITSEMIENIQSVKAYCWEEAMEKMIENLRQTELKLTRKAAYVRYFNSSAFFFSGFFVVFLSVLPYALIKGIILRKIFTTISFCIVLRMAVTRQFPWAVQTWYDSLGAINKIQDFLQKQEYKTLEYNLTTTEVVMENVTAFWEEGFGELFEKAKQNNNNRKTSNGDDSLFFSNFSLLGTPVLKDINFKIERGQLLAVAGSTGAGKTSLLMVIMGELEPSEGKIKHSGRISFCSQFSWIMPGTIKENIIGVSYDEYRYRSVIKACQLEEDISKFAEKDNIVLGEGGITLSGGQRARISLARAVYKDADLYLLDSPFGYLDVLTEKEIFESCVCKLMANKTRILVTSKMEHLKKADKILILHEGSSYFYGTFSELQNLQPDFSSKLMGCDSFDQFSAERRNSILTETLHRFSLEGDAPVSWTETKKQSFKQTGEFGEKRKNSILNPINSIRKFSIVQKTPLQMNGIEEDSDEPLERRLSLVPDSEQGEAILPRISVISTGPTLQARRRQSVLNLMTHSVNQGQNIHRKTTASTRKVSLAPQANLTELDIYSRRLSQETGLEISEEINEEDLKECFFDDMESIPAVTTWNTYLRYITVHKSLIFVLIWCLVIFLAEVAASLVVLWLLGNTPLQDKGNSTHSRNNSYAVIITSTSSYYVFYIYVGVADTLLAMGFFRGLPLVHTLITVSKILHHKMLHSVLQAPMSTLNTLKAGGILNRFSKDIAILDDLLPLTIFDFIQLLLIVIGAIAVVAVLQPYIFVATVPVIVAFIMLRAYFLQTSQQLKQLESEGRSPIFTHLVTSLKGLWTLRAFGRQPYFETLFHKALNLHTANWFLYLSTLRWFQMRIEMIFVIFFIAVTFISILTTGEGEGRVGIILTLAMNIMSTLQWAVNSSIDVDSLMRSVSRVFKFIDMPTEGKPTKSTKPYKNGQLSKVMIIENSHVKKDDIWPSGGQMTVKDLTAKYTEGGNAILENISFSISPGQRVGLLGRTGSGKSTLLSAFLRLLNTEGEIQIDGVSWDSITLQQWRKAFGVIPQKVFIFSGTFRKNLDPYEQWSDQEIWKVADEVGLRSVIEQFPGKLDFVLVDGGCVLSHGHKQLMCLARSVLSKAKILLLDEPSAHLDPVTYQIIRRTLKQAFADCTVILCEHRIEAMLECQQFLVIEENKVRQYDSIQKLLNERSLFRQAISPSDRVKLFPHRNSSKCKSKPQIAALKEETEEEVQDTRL

pEC50 | Emax | Structure (SMILES)
6.90 | 233% | O=C(N[C@H](C(=O)O)C12CC3CC(CC(OCC(F)(F)F)(C3)C1)C2)c1ccc2ccccc2c1OCc1ccc(C(F)(F)F)cc1 [compound 6]
5.95 | 141% | O=C(N[C@H](C(=O)O)C12CC3CC(CC(O)(C3)C1)C2)c1ccc2ccccc2c1OCc1ccc(OC(F)(F)F)cc1 [compound 35]
6.04 | 156% | O=C(N[C@H](C(=O)O)C12CC3CC(CC(O)(C3)C1)C2)c1ccc2ccccc2c1OCc1ccc(C(F)(F)F)cc1 [compound 17]
5.75 | 121% | O=C(N[C@H](C(=O)O)C12CC3CC(CC(O)(C3)C1)C2)c1ccc2sccc2c1OCc1ccc(OC(F)(F)F)cc1 [compound 109, (2S)-2-(3-hydroxy-1-adamantyl)-2-[[4-[[4-(trifluoromethoxy)phenyl]methoxy]benzothiophene-5-carbonyl]amino]acetic acid]
5.85 | 21.7% | O=C(N[C@H](C(=O)O)C12CC3CC(CC(O)(C3)C1)C2)c1ccc2ccccc2c1NCc1ccc(SC(F)(F)F)cc1 [compound 131, (2S)-2-(3-hydroxy-1-adamantyl)-2-[[1-[[4-(trifluoromethylsulfanyl)phenyl]methylamino]naphthalene-2-carbonyl]amino]acetic acid]
5.86 | 176% | O=C(N[C@H](C(=O)O)C12CC3CC(CC(C3)C1)C2)c1ccc2ccccc2c1OCc1ccc(OC(F)(F)F)cc1 [compound 8]

More lines, now with the values behind:

Structure (SMILES) | pEC50 | Emax
O=C(N[C@H](C(=O)O)C12CC3CC(CC(C3)C1)C2)c1ccc2sccc2c1OCc1ccc(C(F)(F)F)cc1 [compound 112, (2S)-2-(1-adamantyl)-2-[[4-[[4-(trifluoromethyl)phenyl]methoxy]benzothiophene-5-carbonyl]amino]acetic acid] | 6.44 | 190%
O=C(N[C@H](C(=O)O)C12CC3CC(CC(C3)C1)C2)c1ccc2sccc2c1OCC1CCC(F)(F)CC1 [compound 106, (2S)-2-(1-adamantyl)-2-[[4-[(4,4-difluorocyclohexyl)methoxy]benzothiophene-5-carbonyl]amino]acetic acid] | 5.44 | 156%
COc1cccc2c(OCc3ccc(C(F)(F)F)cc3)c(C(=O)N[C@H](C(=O)O)C34CC5CC(CC(C5)C3)C4)ccc12 [compound 12] | 6.15 | 154%
O=C(O)[C@@H](N1CN(Cc2ccc(SC(F)(F)F)cc2)c2c(ccc3ccccc23)C1=O)C12CC3CC(CC(O)(C3)C1)C2 [compound 121, (2S)-2-(3-hydroxy-1-adamantyl)-2-[4-oxo-1-[[4-(trifluoromethylsulfanyl)phenyl]methyl]-2H-benzo[h]quinazolin-3-yl]acetic acid] | 5.79 | 56.5%
O=C(N[C@H](C(=O)O)C12CC3CC(CC(C3)C1)C2)c1ccc2ccccc2c1OCc1ccc(S(F)(F)(F)(F)F)cc1 [compound 47] | 6.35 | 148%
O=C(N[C@H](C(=O)O)C12CC3CC(CC(C3)C1)C2)c1ccc2ccccc2c1OCc1nc2ccccc2s1 [compound 65] | 5.88 | 198%
O=C(N[C@H](C(=O)O)C12CC3CC(CC(C3)C1)C2)c1ccc2ccccc2c1OCc1ccc(C(F)(F)C(F)(F)F)cc1 [compound 40] | 6.95 | 149%
C[C@@H](OC12CC3CC(C1)CC([C@H](NC(=O)c1ccc4cc(F)ccc4c1OCc1ccc(C(F)(F)F)cc1)C(=O)O)(C3)C2)C(=O)O [compound 36] | – | 0.9%
O=C(N[C@H](C(=O)O)C12CC3CC(CC(C3)C1)C2)c1ccc2cc(F)ccc2c1OCc1ccc(Cl)c(Cl)c1 [compound 55] | 6.71 | 150%
O=C(N[C@H](C(=O)O)C12CC3CC(CC(C3)C1)C2)c1ccc2sccc2c1OCc1ccc(S(F)(F)(F)(F)F)cc1 [compound 114] | 6.33 | 119%
O=C(O)[C@@H](N1CN(Cc2ccc(C(F)(F)F)cc2)c2c(ccc3ccccc23)C1=O)C12CC3CC(CC(C3)C1)C2 [compound 125, (2S)-2-(1-adamantyl)-2-[4-oxo-1-[[4-(trifluoromethyl)phenyl]methyl]-2H-benzo[h]quinazolin-3-yl]acetic acid] | 6.96 | 66%
O=C(N[C@H](C(=O)O)C12CC3CC(CC(C3)C1)C2)c1ccc2cc(F)ccc2c1OCc1ccc(OC(F)(F)F)cc1 [compound 88] | – | -9.7%

Source: US12637414B2, “Arylamides and methods of use thereof” (Genzyme Corporation, priority 2019, dated 2026)
